Measured values published in paper PMC4552634, “A New Set of Chemical Starting Points with Plasmodium falciparum Transmission-Blocking Potential for Antimalarial Drug Discovery” (PLoS ONE, 2015).
Read-outs that look alike come from different tables or passages of the source.

How the values were obtained:
[1] = tested on: mature P. falciparum NF54 gametocytes (male gametocyte exflagellation); assay: Exflagellation assay; type: cell-based, Plasmodium falciparum; conditions: for % Exflagellation inh. at the IC90: 48 h, concentration = IC90, Fig 7; for % Inhibition exflagellation: 48 h post-treatment at the IC90 of the ATP assay, normalized to control, Fig 6
Method: The exflagellation assay was performed as described by Delves et al., with some modifications. Briefly, 200 μL samples of mature P. falciparum NF54 gametocytes culture in the presence of the corresponding test compound were incubated at 37°C for 48 h in an atmosphere of 5% CO2, 5% O2, 90% N2 in 1.5 mL microfuge tubes. After the incubation period, cells were settled down and medium was carefully removed. The cell pellets were resuspended in 15 μl of complete ookinete medium (RPMI medium with 25 mM HEPES, 50 mg/L hypoxanthine, 2 g/L sodium bicarbonate, 100 μM xanthurenic acid, 20% human serum) pre-warmed at 37°C. Once parasites were resuspended in ookinete medium, they were introduced in a chamber of a FastRead disposable hemocytometer slide and placed on a horizontal surface at room temperature (21°C), to allow cells to homogeneously settle, forming a tight monolayer.

[2] = Cytotoxicity in HepG2 cells (intracellular ATP, ATPlite, 48 h); type: cell-based, human; conditions: human, HepG2 cells
[3] = tested on: P. falciparum NF54 gametocytes fed to An. stephensi mosquitoes; assay: Standard membrane feeding assay (SMFA); type: in vivo, Plasmodium falciparum; conditions: for Infection Prevalence (%): An. stephensi fed gametocytes treated 48 h at the IC90, Fig 6, one of two independent experiments, control 94%; for % Prevalence of infection / % Reduction oocysts SMFA / Block in Transmission (%) / Reduction in Oocyst (%): gametocytes treated 48 h at the IC90; for % Prevalence of infection / % Reduction oocysts SMFA: Fig 7; for Block in Transmission (%) / Reduction in Oocyst (%): normalized to DMSO control, Fig 6; for Reduction in Oocyst (%): mean oocyst intensity
Method: Gametocyte cultures of the P. falciparum NF54 strain, kindly provided by Robert Sinden (Imperial College London), were induced at 0.5% asexual parasitemia and 4% hematocrit (RBCs from the Spanish Red Cross) at 40 mL final volume in T75 flasks. Gametocyte production media comprised RPMI 1640 (Sigma, #R5886), 30 mM bicarbonate (Sigma-Aldrich, #S5761) and 5 mM hypoxanthine (Gibco, #11067–030). Media were made complete with 5% human serum A^+ (Interstate Blood Bank, USA) and 5% AlbuMAX II (Gibco, #11021–037). Cultures were maintained in a gassed incubator at 37°C with 5% CO2, 5% O2, 90% N2 for 14–17 days post-induction, with daily medium replacement without the addition of fresh RBCs. Percentages of mature gametocytes were assessed by microscopic counts (Leica, DM2000) of Giemsa-stained thin blood smears, and functional microgametocytes were assessed for exflagellation activity at room temperature. To test exflagellation, mature gametocyte cultures were centrifuged at 1800 rpm for one minute. The infected RBC pellet was gently mixed with an equal volume of pre-warmed human serum and introduced onto a slide with a coverslip, followed by incubation at room temperature for 10–15 min. The average exflagellation centers per field at 10X magnification was determined by the exflagellation assay described above. Gametocyte counts and exflagellation assays were performed both before and after gametocyte drug treatment (at the time of SMFA).
Two days before gametocyte treatment with compound, spent media was removed and fresh Gametocyte Treatment Medium consisting of RPMI1640 with L-glutamine and 25 mM HEPES (Gibco, #13018–031), 10 mM glucose (Sigma-Aldrich, #G8270), 20 mM bicarbonate (Sigma-Aldrich, #S5761) and 5 mM hypoxanthine (Gibco, #11067) was added. Media were made complete with 10% of human A^+ serum (Interstate Blood Bank). Five ml of mature gametocyte culture at day 15 post-induction was transferred into each well of a pre-warmed 6-well plate. The selected TCAMS compounds were prepared fresh as a stock solution of 10 mM in 100% of DMSO and added to the mature gametocytes at the concentrations described in Fig 7. Gametocytes were exposed to the compound for a total duration of 48 h. At 24 h post-drug exposure, a fixed volume (3 mL) of spent medium was removed and fresh medium was re-added, accompanied by compound replenishment to obtain the required final concentration. Untreated gametocytes with the same final concentration of DMSO (0.1%) as in treated gametocytes were processed in parallel.
On the day of the feed, cultures were centrifuged at 2500 g for 3 min at 37°C, diluted 1:1 with 100% packed cell volume of fresh RBCs, and finally formulated as artificial mosquito blood meals at 50% hematocrit with pre-warmed human serum. All steps were performed at 37°C. Prepared blood meals were fed in duplicate to 4–6 days old female An. stephensi mosquitoes for 30–40 min via Parafilm membrane attached to glass feeders (Fisher Scientific, #12831283) connected to a 37°C circulating water bath. Fed mosquitoes were maintained in an incubator at 27°C and 75% relative humidity with 12 h light/dark cycles. At 7–8 days post-feeding, mosquitoes with fully developed ovaries were dissected for midguts (Leica, M80) and incubated in 0.2% mercurochrome solution in distilled water for 10–15 min. The total number of oocysts in individual midguts was counted using a light microscope (Leica, DM2000) under a 10X objective (100X magnification). Both infection prevalence (percentage of mosquitoes with one or more oocysts) and mean oocyst intensity of infection were defined in each treatment. The percentage block in transmission and the percentage reduction in mean oocyst intensity were calculated after normalizing to the Control DMSO-treated sample.

[4] = tested on: P. falciparum asexual stages; conditions: cited from earlier work
[5] = tested on: P. falciparum stage V gametocytes; assay: Gametocytocidal ATP bioluminescence assay (single point 5 μM and 1 μM, dose-response); type: cell-based, Plasmodium falciparum; conditions: for IC90: ATP assay, Fig 7, read-out: IC90 against gametocytes; for Ratio IC50 HepG2/IC50 P. falciparum: IC50 HepG2 divided by IC50 P. falciparum gametocytes
Method: Purified stage IV-V gametocytes were obtained as previously described [10]. Single point ATP bioluminescence assay and dose–response of positive hits was determined in accordance with the previously published protocol [10].

HepG2 cells = assay: Cytotoxicity in HepG2 cells (intracellular ATP, ATPlite, 48 h); type: cell-based, human; conditions: for Ratio IC50 HepG2/IC50 P. falciparum: IC50 HepG2 divided by IC50 P. falciparum gametocytes
[6] = tested on: P. falciparum stage V gametocytes; assay: microbe, parasite or virus in culture; parameters: BacTiter-Glo ATP luminescence viability of stage V gametocytes, 11-point dose-response IC50; conditions: Plasmodium falciparum, 48 h; sheet CSAanalogstable
Method: Once purified, gametocytes were counted using a Neubauer chamber, and the density was adjusted to 2.5 x 10^5 gametocytes/mL. Fifty μL of the gametocyte suspension (1.25 x 10^4 gametocytes) were added to each well of the 384-well plate containing the compounds, using a Multidrop combi (Thermo Electron Corporation). Plates were shaken for 5 sec to homogenize and then incubated at 37°C for 48 h in an atmosphere of 5% CO2, 5% O2, 90% N2. The ATP level of each well was determined using the BacTiter-Glo reagent (Promega) according to the recommendations of the manufacturer. The BacTiter-Glo assay generates a ‘glow-type’ luminescent signal produced by the luciferase reaction, which consists of mono-oxygenation of luciferin catalyzed by luciferase in the presence of Mg^2+, ATP and molecular oxygen. The luminescence was measured using a plate reader (Victor V, Perkin Elmer). […] The background value was subtracted from every other value of the assay prior to further calculation. The average of 16 replicates of vehicle control (0.5% or 0.1% DMSO) represents 100% of signal. Related to this value, each test concentration was calculated as percentage of control. […] However, there was no significant correlation between compound IC50 values obtained against gametocytes and the inhibition of growth of P. falciparum asexual forms as previously determined for TCAMS [6] […]

[7] = tested on: luciferase reaction (BacTiter-Glo); assay: Interference assay (inhibition of the BacTiter-Glo luciferase reaction); type: biochemical; parameters: concentration or dose not given beside the values; conditions: ATP interference assay
Method: To discard possible false-positive results, we performed an interference assay in parallel. […] […]. The ATP solution was made by dissolving ATP powder (ATP standard from the ATPlite 1 step assay kit, reference 6016731, Perkin Elmer) in culture medium. The positive control used was the Luciferase Inhibitor I Calbiochem (Merck, 119113) at 100 μM.

[8] = HepG2, 48 h exposure, intracellular ATP, read-out: IC50 (μM) Cytotoxicity HepG2
[9] = IC50 per ratio column head, unit inferred, read-out: Cytotoxicity in HepG2
[10] = P. falciparum asexual stages, TCAMS data, read-out: IC50 (µM) Pf asexual stages
[11] = asexual stages, TCAMS data, read-out: IC50 asexual
[12] = Plasmodium falciparum, sexual stages (gametocytes), dose-response, read-out: IC50 sexual
[13] = Plasmodium falciparum, P. falciparum gametocytes, average, read-out: IC50 Pf Gametocytes average, IC50 (µM) average

SMILES | % Exflagellation inh. at the IC90 [1] [%] | IC50 at 48 h [2, 8] [µM] | IC50 at 48 h [2, 9] [µM] | Infection Prevalence (%) [3] [%] | % Prevalence of infection [3] [%] | % Reduction oocysts SMFA [3] [%] | Block in Transmission (%) [3] [%] | Reduction in Oocyst (%) [3] [%] | IC50 [4, 10] [µM] | IC50 [4, 11] [µM] | IC90 ([5]; Plasmodium falciparum) [µM] | IC50 [5, 12] [µM] | Ratio IC50 HepG2/IC50 P. falciparum (HepG2 cells) | Ratio IC50 HepG2/IC50 P. falciparum [5] | IC50 [5, 13] [µM] | % Inhibition exflagellation [1] [%] | % Control luminiscence [7] [%] | also measured
CCC1CN2CCc3cc(OC)c(OC)cc3C2CC1CC1NCCc2cc(OC)c(OC)cc21 (centres unmarked) [TCMDC-125849] | 99.2 | 18 | 17.7 | 3 | 3 | 100 | 97 | 100 | 0.14 | 0.145 | 2 | 0.117 | – | – | – | – | – | –
CC(C)c1ccc(NC(=S)NN=Cc2ccccn2)cc1 [TCMDC-125520] | – | 13 | 12.8 | – | – | – | – | – | 0.72 | 0.724 | – | – | >1306 | >1306 | < 0.0098 | – | – | IC50 [6]: 0.0098 µM
CNC(=S)NN=C(C)c1ccccn1 [TCMDC-123475] | 97.7 | – | > 25 | 0 | 0 | 100 | 100 | 100 | 0.27 | 0.272 | 10 | – | – | – | 1.17 | 97.7 | – | –
Cc1[nH]c2ccccc2c1C(=O)C(C)Sc1nnc(-c2ccccc2Br)[nH]1 (centres unmarked) [TCMDC-125114] | 97 | > 25 | 49.3 | 2 | 2 | 100 | 98 | 100 | 0.0348 | 0.035 | 2.5 | – | 74 | 74 | 0.67 | 97.00 | 99 | IC50 ([4]; as previously determined for TCAMS, read-out: IC50 (μM) Pf Asexual stages): 0.03 µM
N=C(NCCCc1ccccc1)c1cccc(C(=N)NCCCc2ccccc2)n1 [TCMDC-137453] | 97.3 | 13 | 12.8 | 5 | 5 | 100 | 95 | 100 | 1.38 | 1.38 | 2 | 0.313 | 41 | 41 | 0.31 | – | 100 | –
Cc1c(Cl)cccc1NC(=S)NN=Cc1ccccn1 [TCMDC-125487] | 98.3 | – | > 25 | 0 | 1 | 100 | 100 | 100 | 0.6 | 0.603 | 2 | – | – | – | 0.27 | 98.30 | – | –
COc1cccc(NC(=O)[C@H](C(C)C)n2c(=O)[nH]c3ccccc3c2=O)c1 [TCMDC-125133] | 88 | > 25 | > 50 | 3 | 3 | 100 | 97 | 100 | 0.27 | 0.266 | 2.5 | 0.538 | >93 | >93 | 0.54 | 88.00 | 100 | –
CCC1=C(C[C@H]2NCCc3cc(OC)c(OC)cc32)C[C@H]2c3cc(OC)c(OC)cc3CCN2C1 [TCMDC-131825] | – | – | – | – | – | – | – | – | 0.31 | 0.312 | – | – | >83 | >83 | – | – | – | IC50 (HepG2 cells; HepG2 cells, IC50 per ratio column head, unit inferred): > 25 µM; IC50 ([5]; P. falciparum gametocytes, average, read-out: IC50 Pf Gametocytes average, IC50 (µM) average): 0.3 µM; IC50 [6]: 0.3 µM
